Laboratory results from patent US20070265256A1, “Phosphodiesterase 10 inhibitors” (priority 2006, published 2007).

Each molecule was assayed against T1, mPDE10A7 (Mus musculus, UniProt Q8CA95) (assay: mPDE10A7 enzyme inhibition (IMAP fluorescence polarization)). Details: fluorescein labeled cAMP or cGMP substrate.
T1 sequence (Q8CA95 446-763 limits assumed): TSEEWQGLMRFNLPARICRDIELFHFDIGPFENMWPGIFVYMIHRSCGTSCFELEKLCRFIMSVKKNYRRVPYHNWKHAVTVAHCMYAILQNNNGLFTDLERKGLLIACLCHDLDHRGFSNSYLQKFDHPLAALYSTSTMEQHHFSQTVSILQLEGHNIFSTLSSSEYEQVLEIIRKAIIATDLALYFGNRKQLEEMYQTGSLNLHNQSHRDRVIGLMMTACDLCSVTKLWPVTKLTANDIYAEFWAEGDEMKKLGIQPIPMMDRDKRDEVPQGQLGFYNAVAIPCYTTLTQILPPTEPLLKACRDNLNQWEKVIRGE
Format: biochemical
Description: To analyze the enzyme activity, 5 μL of serial diluted mPDE10A7 containing lysate were incubated with equal volumes of diluted (100-fold) fluorescein labeled cAMP or cGMP for 30 minutes in MDC HE 96-well assay plates at room temperature. Both the enzyme and the substrates were diluted in the following assay buffer: Tris/HCl (pH 8.0) 50 mM, MgCl2 5 mM, 2-mercaptoethanol 4 mM, BSA 0.33 mg/mL. After incubation, the reaction was stopped by adding 20 μL of diluted (400-fold) binding reagents and was incubated for an hour at room temperature. The plates were counted in an Analyst GT (Molecular Devices) for fluorescence polarization. An IMAP Assay kit (Molecular Device) was used to assess enzyme properties of mmPDE10A7. Data were analyzed with SoftMax Pro.
To check the inhibition profile, 10 μL of serial diluted compounds were incubated with 30 μl of diluted PDE enzymes in a 96-well polystyrene assay plate for 30 minutes at room temperature. After incubation, 5 μL of the compound-enzyme mixture were aliquoted into a MDC HE black plate, mixed with 5 μL of 100-fold diluted fluorescein labeled substrates (cAMP or cGMP), and incubated for 30 minutes at room temperature. The reaction was stopped by adding 20 μL of diluted binding reagents and counted in an Analyst GT for fluorescence polarization. The data were analyzed with SoftMax Pro.

Row | Structure (SMILES) | IC50 [nM]
1 | COc1cc2nncc(-c3cccc(N4CCOCC4)c3)c2cc1OC [Cpd 1, 6,7-dimethoxy-4-(3-morpholin-4-ylphenyl)cinnoline] | 57.9
2 | CCS(=O)(=O)c1cccc(-c2cnnc3cc(OC)c(OC)cc23)c1 [Cpd 3, 4-[3-(Ethylsulfonyl)phenyl]-6,7-dimethoxycinnoline] | 29.8
3 | COc1cc2nncc(N3CCc4cc(N5CCCCC5)ccc4C3=O)c2cc1OC [Cpd 4, 2-(6,7-dimethoxycinnolin-4-yl)-6-piperidin-1-yl-3,4-dihydroisoquinolin-1(2H)-one] | 167
4 | COc1cc2nncc(-c3cccc(-c4cnn(C)c4)c3)c2cc1OC [Cpd 5, 6,7-dimethoxy-4-[3-(1-methyl-1H-pyrazol-4-yl)phenyl]cinnoline hydroformate] | 79.8
5 | COc1cc2nncc(N3CCc4[nH]nc(C(=O)NC5CC5)c4C3)c2cc1OC [Cpd 7, N-cyclopropyl-5-(6,7-dimethoxycinnolin-4-yl)-4,5,6,7-tetrahydro-1H-pyrazolo[4,3-c]pyridine-3-carboxamide] | 19.3
6 | COc1cc2nncc(-c3cccc(C4=NC(C)(C)CO4)c3)c2cc1OC [Cpd 8, 4-[3-(4,4-Dimethyl-4,5-dihydro-1,3-oxazol-2-yl)phenyl]-6,7-dimethoxycinnoline] | 30.6
7 | COc1cccc(-n2cc(-c3cnnc4cc(OC)c(OC)cc34)cn2)c1 [Cpd 10, 6,7-Dimethoxy-4-[1-(3-methoxyphenyl)-1H-pyrazol-4-yl]cinnoline hydroformate] | 68
8 | CCOC(=O)c1n[nH]c2ccc(-c3cnnc4cc(OC)c(OC)cc34)cc12 [Cpd 12, Ethyl 5-(6,7-dimethoxycinnolin-4-yl)-1H-indazole-3-carboxylate] | 12.1
9 | COc1cc2nncc(-c3cccc(NC(C)=O)c3)c2cc1OC [Cpd 14, N-[3-(6,7-dimethoxycinnolin-4-yl)phenyl]acetamide hydroformate] | 43
10 | COc1cc2nncc(-c3cccc(N(C)C)c3)c2cc1OC [Cpd 15, 3-(6,7-Dimethoxycinnolin-4-yl)-N,N-dimethylaniline hydroformate] | 22.8
11 | COc1cc2nncc(-n3ccc4cc(N5CCOCC5)ccc43)c2cc1OC [Cpd 20, 6,7-dimethoxy-4-(5-morpholin-4-yl-1H-indol-1-yl)cinnoline hydroformate] | 209
12 | COc1cc2nncc(-c3cnn(Cc4ccc(C)cc4)c3)c2cc1OC [Cpd 21, 6,7-Dimethoxy-4-[1-(4-methylbenzyl)-1H-pyrazol-4-yl]cinnoline] | 43.6
13 | COc1cc2nncc(-c3cnn(Cc4ccc(-c5ccccc5)cc4)c3)c2cc1OC [Cpd 23, 4-[1-(Biphenyl-4-ylmethyl)-1H-pyrazol-4-yl]-6,7-dimethoxycinnoline] | 474
14 | COC(=O)c1ccc(Cn2cc(-c3cnnc4cc(OC)c(OC)cc34)cn2)cc1 [Cpd 24, Methyl 4-{[4-(6,7-dimethoxycinnolin-4-yl)-1H-pyrazol-1-yl]methyl}benzoate] | 48.7
15 | COc1cc2nncc(-c3cnn(Cc4cccc(C(F)(F)F)c4)c3)c2cc1OC [Cpd 26, 6,7-Dimethoxy-4-{1-[3-(trifluoromethyl)benzyl]-1H-pyrazol-4-yl}cinnoline] | 182
16 | COc1cc2nncc(-c3cnn(Cc4ccccc4C#N)c3)c2cc1OC [Cpd 28, 2-{[4-(6,7-Dimethoxycinnolin-4-yl)-1H-pyrazol-1-yl]methyl}benzonitrile] | 101
17 | COc1cc2nncc(-c3cnn(Cc4ccc(OC(F)(F)F)cc4)c3)c2cc1OC [Cpd 32, 6,7-dimethoxy-4-{1-[4-(trifluoromethoxy)benzyl]-1H-pyrazol-4-yl}cinnoline] | 459
18 | COc1cc2nncc(-c3ccc(N4CCOCC4)nc3)c2cc1OC [Cpd 33, 6,7-Dimethoxy-4-(6-morpholin-4-ylpyridin-3-yl)cinnoline] | 11.1
19 | COc1cc2nncc(-c3cnn(Cc4ccc(F)cc4)c3)c2cc1OC [Cpd 35, 4-[1-(4-fluorobenzyl)-1H-pyrazol-4-yl]-6,7-dimethoxycinnoline hydroformate] | 10.4
20 | COc1cc2nncc(-c3ccnc(N4CCOCC4)c3F)c2cc1OC [Cpd 42] | 62
21 | COc1cc2nncc(-c3cnc(N4CCN(C)CC4)nc3)c2cc1OC [Cpd 43, 6,7-dimethoxy-4-[2-(4-methylpiperazin-1-yl)pyrimidin-5-yl]cinnoline] | 19.9
22 | COc1cc2nncc(N3CCc4c(OCC5CC5)cccc4C3=O)c2cc1OC [Cpd 46] | 247
23 | CCOC(=O)c1noc2ccc(-c3cnnc4cc(OC)c(OC)cc34)cc12 [Cpd 52] | 48.4
24 | COc1cc2nncc(-c3ccnc(N4CCN(C)C(=O)C4)c3)c2cc1OC [Cpd 54] | 55.8

Row | Structure (SMILES) | IC50 [nM]
25 | COc1cc2nncc(-c3ccc(N4CCC(OC)C4)nc3)c2cc1OC (stereo not drawn) [Cpd 55] | 10.5
26 | COc1cc2nncc(-c3ccc(N4CCC(F)(F)CC4)nc3)c2cc1OC [Cpd 56] | 29.5
27 | COc1cc2nncc(-c3ccc(NC(C)C)nc3)c2cc1OC [Cpd 59] | 8.23
28 | COCCNc1ccc(-c2cnnc3cc(OC)c(OC)cc23)cn1 [Cpd 62] | 36.2
29 | COc1cc2nncc(-c3ccc(NCCN)nc3)c2cc1OC [Cpd 63] | 614
30 | COc1cc2nncc(-c3ccc(NCC4CCN4C(=O)OC(C)(C)C)nc3)c2cc1OC (stereo not drawn) [Cpd 65] | 66.6
31 | COc1cc2nncc(-c3ccc(OCc4ccc5ccccc5n4)cc3)c2cc1OC [Cpd 68] | 106
32 | COc1cc2nncc(-c3ccc(N4CCn5c(nnc5C(F)(F)F)C4)nc3)c2cc1OC [Cpd 72] | 68.6
33 | CNC1CCN(c2ccc(-c3cnnc4cc(OC)c(OC)cc34)cn2)CC1 [Cpd 79] | 362
34 | COc1cc2nncc(-c3ccc(Nc4ccccc4)nc3)c2cc1OC [Cpd 81] | 89.1
35 | COc1cc2nncc(-c3ccc(Oc4ccccc4)nc3)c2cc1OC [Cpd 87] | 152
36 | COc1cc2nncc(-c3ccc(Nc4ccc(N(C)C)cc4)nc3)c2cc1OC [Cpd 88] | 179
37 | COc1cc2nncc(-c3ccc(OCC4CC4)nc3)c2cc1OC [Cpd 89, 4-(6-(cyclopropylmethoxy)pyridin-3-yl)-6,7-dimethoxycinnoline] | 33.8
38 | COc1cc2nncc(-c3ccc(NCCc4ccccn4)nc3)c2cc1OC [Cpd 93] | 17.9
39 | COc1cc2nncc(-c3ccc(Nc4cccc(C#N)c4)nc3)c2cc1OC [Cpd 95] | 87.9
40 | COc1cc2nncc(-c3ccc(C(C)=O)c(F)c3)c2cc1OC [Cpd 100] | 254
41 | COc1cc2nncc(-c3ccc(CN4CC(C(=O)O)C4)cc3)c2cc1OC [Cpd 101, 1-(4-(6,7-dimethoxycinnolin-4-yl)benzyl)azetidine-3-carboxylic acid] | 231
42 | COc1cc2nncc(-c3ccc(N4CCC(O)(c5ccccc5)CC4)nc3)c2cc1OC [Cpd 108] | 21.4
43 | COc1cc2nncc(-c3cnc(-c4cnc(NC(C)C)c(F)c4)c(F)c3)c2cc1OC [Cpd 115] | 676
44 | COc1cc2nncc(-c3ccc(Nc4ccc(-c5cnco5)cc4)nc3)c2cc1OC [Cpd 118] | 38.6
45 | COc1cc2nncc(-c3ccc(Nc4nnc(C5CC5)s4)nc3)c2cc1OC [Cpd 119] | 259
46 | COc1cc2nncc(-c3ccc(NCc4cccc(OC(F)(F)F)c4)nc3)c2cc1OC [Cpd 122] | 186
47 | COc1cc2nncc(-c3ccc(NC(C)C)nc3C)c2cc1OC [Cpd 123] | 18.5
48 | COc1cc2nncc(-c3ccc(F)c(NC(C)=O)c3)c2cc1OC [Cpd 146] | 41.5
